Experimental data as given in patent publication US10781197B2, “Sulfonamide analogues of galiellalactone” (GLACTONE PHARMA DEVELOPMENT AB, priority 2016, dated 2020).

Test system: STAT3 signaling
Assay: STAT3 Luciferase reporter gene assay
Type: cell-based
Conditions: not given
Protocol: The ability to inhibit STAT3 signaling of the example compounds in comparison to galiellalactone was evaluated using a STAT3 Luciferase reporter gene assay.
Compounds were tested for dose response activity to determine IC50 at eight different doses (0.03, 0.1, 0.3, 1, 3, 10, 30 and 100 μM) in triplicate on the STAT3 reporter system.
Briefly, the STAT3 reporter/HEK293 cell line was plated in 96-well white plates for 16 h. Cells were pretreated with compounds for 1 h. Cells were then treated with IL-6 to induce STAT3 activation for 16 h. Luciferase activity was measured and analyzed.

`Cc1ccc(S(=O)(=O)N(C)[C@@]2(C)C=C3C(=O)O[C@@H]4CC[C@H](C2)[C@]34O)cc1` [Example 23, N-[(4R,7R,9R,11 S)-11-Hydroxy-9-methyl-2-oxo-3-oxatricyclo[5.3.1.0^4,11]undec-1(10)-en-9-yl]-N,4-dimethylbenzene-1-sulfonamide] was tested, and the “activity in the STAT3 reporter assay (in words)” value (from here on “activity”) was “significantly reduced or total loss of activity”.
With `CC(C)S(=O)(=O)N[C@@]1(C)C=C2C(=O)O[C@@H]3CC[C@H](C1)[C@]23O` [Example 24, N-[(4R,7R,9R,11 S)-11-Hydroxy-9-methyl-2-oxo-3-oxatricyclo[5.3.1.0^4,11]undec-1(10)-en-9-yl]propane-2-sulfonamide] the “activity” value was “significantly reduced or total loss of activity”.

Same assay, conditions: Homo sapiens; STAT3 reporter/HEK293 cell line, 1 h pretreatment, IL-6 induced for 16 h, luciferase activity; read-out: IC50

Going from `C[C@]1(NS(=O)(=O)c2ccccc2)C=C2C(=O)O[C@@H]3CCC(C1)[C@]23O` (stereo partly drawn) [Example 2, N-[(4R,7R,9R,11S)-11-Hydroxy-9-methyl-2-oxo-3-oxatricyclo[5.3.1.0^4,^11]undec-1(10)-en-9-yl]benzenesulfonamide] to `Cc1cccc(S(=O)(=O)N[C@@]2(C)C=C3C(=O)O[C@@H]4CCC(C2)[C@]34O)c1` (stereo partly drawn) [Example 6, N-[(4R,7R,9R,11S)-11-Hydroxy-9-methyl-2-oxo-3-oxatricyclo[5.3.1.0^4,^11]undec-1(10)-en-9-yl]-3-methylbenzene-1-sulfonamide], the IC50 rises from 3 µM to 6.76 µM (2.3-fold). The first is the more potent here.

Going from `COc1ccc(S(=O)(=O)N[C@@]2(C)C=C3C(=O)O[C@@H]4CCC(C2)[C@]34O)cc1` (stereo partly drawn) [Example 3, N-[(4R,7R,9R,11S)-11-Hydroxy-9-methyl-2-oxo-3-oxatricyclo[5.3.1.0^4,^11]undec-1(10)-en-9-yl]-4-methoxybenzene-1-sulfonamide] to `C[C@]1(NS(=O)(=O)c2ccc(Br)cc2)C=C2C(=O)O[C@@H]3CCC(C1)[C@]23O` (stereo partly drawn) [Example 10, 4-Bromo-N-[(4R,7R,9R,11S)-11-hydroxy-9-methyl-2-oxo-3-oxatricyclo[5.3.1.0^4,^11]undec-1(10)-en-9-yl]benzene-1-sulfonamide], the IC50 falls from 8.41 µM to 3.2 µM (2.6-fold).

`C[C@]1(NS(=O)(=O)c2ccccc2[N+](=O)[O-])C=C2C(=O)O[C@@H]3CCC(C1)[C@]23O` (stereo partly drawn) [Example 4, N-[(4R,7R,9R,11S)-11-Hydroxy-9-methyl-2-oxo-3-oxatricyclo[5.3.1.0^4,^11]undec-1(10)-en-9-yl]-2-nitrobenzene-1-sulfonamide] and `C[C@]1(NS(=O)(=O)c2ccccc2F)C=C2C(=O)O[C@@H]3CCC(C1)[C@]23O` (stereo partly drawn) [Example 7, 2-Fluoro-N-[(4R,7R,9R,11S)-11-hydroxy-9-methyl-2-oxo-3-oxatricyclo[5.3.1.0^4,^11]undec-1(10)-en-9-yl]benzene-1-sulfonamide] are within 1.5-fold of each other in IC50: 6.71 µM for the first, 4.69 µM for the second.

First: C[C@]1(NS(=O)(=O)c2ccc(C(F)(F)F)cc2)C=C2C(=O)O[C@@H]3CCC(C1)[C@]23O (stereo partly drawn) [Example 5, N-[(4R,7R,9R,11S)-11-Hydroxy-9-methyl-2-oxo-3-oxatricyclo[5.3.1.0^4,^11]undec-1(10)-en-9-yl]-4-(trifluoromethyl)benzene-1-sulfonamide]
Second: C[C@]1(NS(=O)(=O)c2ccc(F)cc2)C=C2C(=O)O[C@@H]3CCC(C1)[C@]23O (stereo partly drawn) [Example 17, 4-Fluoro-N-[(4R,7R,9R,11S)-11-hydroxy-9-methyl-2-oxo-3-oxatricyclo[5.3.1.0^4,^11]undec-1(10)-en-9-yl]benzene-1-sulfonamide]
The IC50 of the first is 1.8-fold lower: 1.76 µM for the first, 3.16 µM for the second.

Going from `C[C@]1(NS(=O)(=O)c2ccc([N+](=O)[O-])cc2)C=C2C(=O)O[C@@H]3CCC(C1)[C@]23O` (stereo partly drawn) [Example 8, N-[(4R,7R,9R,11S)-11-Hydroxy-9-methyl-2-oxo-3-oxatricyclo[5.3.1.0^4,^11]undec-1(10)-en-9-yl]-4-nitrobenzene-1-sulfonamide] to `C[C@]1(NS(=O)(=O)c2ccc(Cl)cc2)C=C2C(=O)O[C@@H]3CCC(C1)[C@]23O` (stereo partly drawn) [Example 18, 4-Chloro-N-[(4R,7R,9R,11S)-11-hydroxy-9-methyl-2-oxo-3-oxatricyclo[5.3.1.0^4,^11]undec-1(10)-en-9-yl]benzene-1-sulfonamide], the IC50 falls from 5.05 µM to 2.26 µM (2.2-fold). The second is the more potent here.

First: C[C@]1(NS(=O)(=O)c2ccc(C#N)cc2)C=C2C(=O)O[C@@H]3CCC(C1)[C@]23O (stereo partly drawn) [Example 9, 4-Cyano-N-[(4R,7R,9R,11S)-11-hydroxy-9-methyl-2-oxo-3-oxatricyclo[5.3.1.0^4,^11]undec-1(10)-en-9-yl]benzene-1-sulfonamide]
Second: C[C@]1(NS(=O)(=O)c2ccc(N)cc2)C=C2C(=O)O[C@@H]3CC[C@H](C1)[C@]23O [Example 21, 4-Amino-N-[(4R,7R,9R,11 S)-11-hydroxy-9-methyl-2-oxo-3-oxatricyclo[5.3.1.0^4,11]undec-1(10)-en-9-yl]benzene-1-sulfonamide]
The IC50 of the first is 2.6-fold higher: 9.31 µM for the first, 3.63 µM for the second. The second is the more potent here.

Going from `C[C@]1(NS(=O)(=O)c2ccc(C3=NCCO3)cc2)C=C2C(=O)O[C@@H]3CCC(C1)[C@]23O` (stereo partly drawn) [Example 11, 4-(4,5-Dihydro-1,3-oxazol-2-yl)-N-[(4R,7R,9R,11S)-11-hydroxy-9-methyl-2-oxo-3-oxatricyclo[5.3.1.0^4,^11]undec-1(10)-en-9-yl]benzene-1-sulfonamide] to `C[C@]1(NS(=O)(=O)c2ccc(CO)cc2)C=C2C(=O)O[C@@H]3CC[C@H](C1)[C@]23O` [Example 22, N-[(4R,7R,9R,11S)-11-Hydroxy-9-methyl-2-oxo-3-oxatricyclo[5.3.1.0^4,11]undec-1(10)-en-9-yl]-4-(hydroxymethyl)benzene-1-sulfonamide], the IC50 rises from 0.24 µM to 11.4 µM (48-fold). The first is the more potent here.

First: Cc1ccc(S(=O)(=O)N[C@@]2(C)C=C3C(=O)O[C@@H]4CCC(C2)[C@]34O)nc1 (stereo partly drawn) [Example 12, N-[(4R,7R,9R,11S)-11-Hydroxy-9-methyl-2-oxo-3-oxatricyclo[5.3.1.0^4,^11]undec-1(10)-en-9-yl]-5-methylpyridine-2-sulfonamide]
Second: Cc1ccc(S(=O)(=O)N[C@@]2(C)C=C3C(=O)O[C@@H]4CCC(C2)[C@]34O)cn1 (stereo partly drawn) [Example 13, N-[(4R,7R,9R,11S)-11-Hydroxy-9-methyl-2-oxo-3-oxatricyclo[5.3.1.0^4,^11]undec-1(10)-en-9-yl]-6-methylpyridine-3-sulfonamide]
The IC50 of the first is 1.7-fold lower: 3.38 µM for the first, 5.65 µM for the second. The first is the more potent here.

Compared with `Cc1ccc(S(=O)(=O)N[C@@]2(C)C=C3C(=O)O[C@@H]4CCC(C2)[C@]34O)s1` (stereo partly drawn) [Example 14, N-[(4R,7R,9R,11S)-11-Hydroxy-9-methyl-2-oxo-3-oxatricyclo[5.3.1.0^4,^11]undec-1(10)-en-9-yl]-5-methylthiophene-2-sulfonamide], `Cc1ccc(S(=O)(=O)N[C@@]2(C)C=C3C(=O)O[C@@H]4CCC(C2)[C@]34O)cc1F` (stereo partly drawn) [Example 16, 3-Fluoro-N-[(4R,7R,9R,11S)-11-hydroxy-9-methyl-2-oxo-3-oxatricyclo[5.3.1.0^4,^11]undec-1(10)-en-9-yl]-4-methylbenzene-1-sulfonamide] is 1.5-fold lower in IC50: 6.78 µM for the first, 4.5 µM for the second.

Compared with `C[C@]1(NS(=O)(=O)c2ccc(C(F)(F)F)cc2Cl)C=C2C(=O)O[C@@H]3CCC(C1)[C@]23O` (stereo partly drawn) [Example 15, 2-Chloro-N-[(4R,7R,9R,11S)-11-hydroxy-9-methyl-2-oxo-3-oxatricyclo[5.3.1.0^4,^11]undec-1(10)-en-9-yl]-4-(trifluoromethyl)benzene-1-sulfonamide], `Cc1ccc(CS(=O)(=O)N[C@@]2(C)C=C3C(=O)O[C@@H]4CCC(C2)[C@]34O)cc1` (stereo partly drawn) [Example 19, N-[(4R,7R,9R,11S)-11-Hydroxy-9-methyl-2-oxo-3-oxatricyclo[5.3.1.0^4,^11]undec-1(10)-en-9-yl]-1-(4-methylphenyl)methanesulfonamide] is 3.3-fold higher in IC50: 2.9 µM for the first, 9.69 µM for the second. The first is the more potent here.

Compared with `CC(C)S(=O)(=O)N[C@@]1(C)C=C2C(=O)O[C@@H]3CC[C@H](C1)[C@]23O` [Example 24, N-[(4R,7R,9R,11 S)-11-Hydroxy-9-methyl-2-oxo-3-oxatricyclo[5.3.1.0^4,11]undec-1(10)-en-9-yl]propane-2-sulfonamide], `COc1ccc(CN2C(=O)C3=C[C@](C)(NS(=O)(=O)c4ccc(C)cc4)CC4CC[C@@H]2[C@@]34O)cc1` (stereo partly drawn) [Example 25, N-[(4R,7R,9R,11S)-11-hydroxy-3-[(4-methoxyphenyl)methyl]-9-methyl-2-oxo-3-azatricyclo[5.3.1.04,^11]undec-1(10)-en-9-yl]-4-methylbenzene-1-sulfonamide] is 26-fold lower in IC50: 97 µM for the first, 3.7 µM for the second.

`COc1ccc(CN2C(=O)C3=C[C@](C)(NS(=O)(=O)c4ccc(C(F)(F)F)cn4)CC4CC[C@@H]2[C@@]34O)cc1` (stereo partly drawn) [Example 26, N-[(4R,7R,9R,11S)-11-Hydroxy-3-[(4-methoxyphenyl)methyl]-9-methyl-2-oxo-3-azatricyclo[5.3.1.04,^11]undec-1(10)-en-9-yl]-5-(trifluoromethyl)pyridine-2 sulfonamide] and `C[C@]1(NS(=O)(=O)c2ccc(C(F)(F)F)cn2)C=C2C(=O)N(Cc3ccc(C#N)cc3)[C@@H]3CC[C@H](C1)[C@]23O` [Example 27, N-[(4R,7R,9R,11S)-3-[(4-Cyanophenyl)methyl]-11-hydroxy-9-methyl-2-oxo-3-azatricyclo[5.3.1.0^4,11]undec-1 (10)-en-9-yl]-5-(trifluoromethyl)pyridine-2-sulfonamide] are within 1.5-fold of each other in IC50: 8.64 µM for the first, 8.61 µM for the second.

Same assay, conditions: STAT3 reporter/HEK293 cell line, 1 h pretreatment, IL-6 induced for 16 h, luciferase activity

`Cc1ccc(S(=O)(=O)N(C)[C@@]2(C)C=C3C(=O)O[C@@H]4CC[C@H](C2)[C@]34O)cc1` [Example 23, N-[(4R,7R,9R,11 S)-11-Hydroxy-9-methyl-2-oxo-3-oxatricyclo[5.3.1.0^4,11]undec-1(10)-en-9-yl]-N,4-dimethylbenzene-1-sulfonamide] was tested, and the IC50 was “inactive”.

Same assay, conditions: listed as example 23

`Cc1ccc(S(=O)(=O)N(C)[C@@]2(C)C=C3C(=O)O[C@@H]4CC[C@H](C2)[C@]34O)cc1` [Example 23, N-[(4R,7R,9R,11 S)-11-Hydroxy-9-methyl-2-oxo-3-oxatricyclo[5.3.1.0^4,11]undec-1(10)-en-9-yl]-N,4-dimethylbenzene-1-sulfonamide] was tested, and the “activity” value was “no or low activity”.

Same assay, conditions: listed as example 24

With `CC(C)S(=O)(=O)N[C@@]1(C)C=C2C(=O)O[C@@H]3CC[C@H](C1)[C@]23O` [Example 24, N-[(4R,7R,9R,11 S)-11-Hydroxy-9-methyl-2-oxo-3-oxatricyclo[5.3.1.0^4,11]undec-1(10)-en-9-yl]propane-2-sulfonamide] the “activity” value was “no or low activity”.
